# Experimental data from patent US7576217B2, “Quinolines as allosteric enhancers of the GABAB receptors” (Hoffman-La Roche Inc., priority 2004, dated 2009).
# Where two headings read alike, the source gives them in different places.
# Tests used:
# human GABABR1aR2a = target: T1, human GABABR1aR2a (Homo sapiens, UniProt O75899+Q9UBS5); assay: Intracellular Ca2+ mobilization assay in CHO-GABABR1aR2a-Gα16 cell (FLIPR); assay type: cell-based; conditions: for GABA shift Log [EC50(GABA + 10 μM cp)/EC50(GABA alone)]: GABA 0.0003-30 μM with and without 10 μM enhancer; for Emax: enhancer 0.001-30 μM in presence of 10 nM GABA (EC10), applied 15 min before GABA, read-out: Emax (%) at 10 nM GABA alone = 0% 10 μM GABA alone = 100%; for EC50: enhancer concentration-response in presence of 10 nM GABA (EC10)
# T1 construct: expressed in transfected cells
# Protocol: Intracellular Ca^2+ Mobilization Assay
# The Chinese Hamster Ovary (CHO) cells stably expressing human GABABR1aR2a and Gα16 were seeded at 5×10^4 cells/well in the poly-D-lysine treated, 96-well, black/clear-bottomed plates (BD Biosciences, Palo Alto, Calif.). 24 h later, the cells were loaded for 90 min at 37° C. with 4 μM Flou-4 acetoxymethyl ester (Catalog No. F-14202, Molecular Probes, Eugene, Oreg.) in loading buffer (1×HBSS, 20 mM HEPES, 2.5 mM Probenecid). Hanks' Balanced Salt Solution (HBSS) (10×) (catalog No. 14065-049) and HEPES (1M) (catalog No. 15630-056) were purchased from Invitrogen, Carlsbad, Calif. Probenecid (250 mM) (catalog No. P8761) was from Sigma, Buchs, Switzerland. The cells were washed five times with loading buffer to remove excess dye and intracellular calcium mobilization, [Ca^2+]i were measured using a Fluorometric Imaging Plate Reader (FLIPR, Molecular Devices, Menlo Park, Calif.) as described previously (Porter et al., Br. J. Pharmacol., 128, 13-20, 1999). The enhancers were applied 15 min before the application of the GABA. For GABA shift assay, concentration-response curves of GABA (0.0003-30 μM) were determined in the absence and presence of […] enhancer. The GABA-shift is defined as Log [EC50 (GABA+10 μM enhancer)/EC50 (GABA alone)]. The % maximum enhancing effect (% Emax) and potency (EC50 value) of each enhancer was determined from concentration-response curve of the enhancer (0.001-30 μM) in the presence of 10 nM GABA (EC10). Responses were measured as peak increase in fluorescence minus basal, normalized to the maximal stimulatory effect induced by 10 μM GABA alone (considered 100%) and 10 nM GABA alone (considered 0%). The data were fitted with the equation Y=100+(Max−100)/(1+(EC50/[drug])^n) where Max is the maximum effect, EC50 the concentration eliciting a half-maximum effect and n the Hill slope.
# [1] = PO, cited from earlier work
# [2] = cited from earlier work
# [3] = rats; cited from earlier work
# T1 sequence (Q9UBS5 15-961 limits assumed): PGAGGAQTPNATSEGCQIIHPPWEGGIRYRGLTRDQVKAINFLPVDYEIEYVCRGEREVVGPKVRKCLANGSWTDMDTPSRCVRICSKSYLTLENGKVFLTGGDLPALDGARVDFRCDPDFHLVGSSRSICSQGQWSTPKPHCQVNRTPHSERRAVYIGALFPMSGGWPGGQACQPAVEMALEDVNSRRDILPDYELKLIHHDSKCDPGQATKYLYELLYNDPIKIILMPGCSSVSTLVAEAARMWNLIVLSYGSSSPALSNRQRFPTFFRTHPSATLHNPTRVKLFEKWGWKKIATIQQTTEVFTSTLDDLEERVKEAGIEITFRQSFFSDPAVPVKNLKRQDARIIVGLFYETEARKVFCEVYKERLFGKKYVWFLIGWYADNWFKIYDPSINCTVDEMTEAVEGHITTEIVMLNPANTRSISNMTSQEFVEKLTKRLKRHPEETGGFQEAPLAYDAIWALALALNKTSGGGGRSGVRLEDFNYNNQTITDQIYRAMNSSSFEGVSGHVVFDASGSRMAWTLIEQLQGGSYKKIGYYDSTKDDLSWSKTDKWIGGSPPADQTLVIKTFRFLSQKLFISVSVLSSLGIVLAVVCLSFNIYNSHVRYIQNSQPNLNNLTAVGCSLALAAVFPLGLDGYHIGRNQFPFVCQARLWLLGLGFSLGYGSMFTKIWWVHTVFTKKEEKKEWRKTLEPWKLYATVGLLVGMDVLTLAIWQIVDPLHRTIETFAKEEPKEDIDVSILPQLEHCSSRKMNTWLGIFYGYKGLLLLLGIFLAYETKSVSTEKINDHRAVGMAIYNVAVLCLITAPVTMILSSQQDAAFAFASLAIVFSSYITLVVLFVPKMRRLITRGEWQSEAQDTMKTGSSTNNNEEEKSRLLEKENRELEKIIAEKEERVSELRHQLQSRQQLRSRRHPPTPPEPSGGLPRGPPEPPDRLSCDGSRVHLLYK
# T1 sequence (O75899 42-941): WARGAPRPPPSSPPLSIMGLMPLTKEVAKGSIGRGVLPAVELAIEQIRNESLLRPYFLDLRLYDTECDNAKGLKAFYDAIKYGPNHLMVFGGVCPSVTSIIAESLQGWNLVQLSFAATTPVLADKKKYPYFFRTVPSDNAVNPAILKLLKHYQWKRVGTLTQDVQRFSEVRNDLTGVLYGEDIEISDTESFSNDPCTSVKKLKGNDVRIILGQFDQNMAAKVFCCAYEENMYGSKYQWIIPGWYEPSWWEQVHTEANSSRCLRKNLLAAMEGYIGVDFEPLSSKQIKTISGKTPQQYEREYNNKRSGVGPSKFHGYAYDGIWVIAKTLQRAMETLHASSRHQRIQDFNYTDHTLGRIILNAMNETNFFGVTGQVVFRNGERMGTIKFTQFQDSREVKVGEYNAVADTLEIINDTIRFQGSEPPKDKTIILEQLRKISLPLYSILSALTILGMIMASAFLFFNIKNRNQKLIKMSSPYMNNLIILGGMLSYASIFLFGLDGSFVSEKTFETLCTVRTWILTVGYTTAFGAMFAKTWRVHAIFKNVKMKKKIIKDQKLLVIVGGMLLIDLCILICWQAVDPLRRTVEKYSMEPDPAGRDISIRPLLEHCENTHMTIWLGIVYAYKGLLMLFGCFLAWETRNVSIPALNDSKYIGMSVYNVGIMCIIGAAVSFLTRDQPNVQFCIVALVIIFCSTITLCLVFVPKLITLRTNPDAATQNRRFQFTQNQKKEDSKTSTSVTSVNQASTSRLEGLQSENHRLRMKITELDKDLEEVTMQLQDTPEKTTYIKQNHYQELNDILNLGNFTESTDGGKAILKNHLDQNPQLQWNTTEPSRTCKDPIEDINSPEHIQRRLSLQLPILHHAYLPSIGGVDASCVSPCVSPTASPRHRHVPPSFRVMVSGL
Compound,GABA shift Log [EC50(GABA + 10 μM cp)/EC50(GABA alone)] (human GABABR1aR2a),Emax (human GABABR1aR2a) [%],EC50 (human GABABR1aR2a) [µM],other results
"Cc1nc2ccc(Br)cc2c(-c2ccc(F)cc2)c1C(=O)C1CC1 [Example 56, [6-Bromo-4-(4-fluoro-phenyl)-2-methyl-quinolin-3-yl]-cyclopropyl-methanone]",−0.90,58,2.2,
"NCC(CC(=O)O)c1ccc(Cl)cc1 (stereo not drawn) [Baclofen, β-chlorophenyl GABA]",,,,"effect on spontaneous locomotor activity, rotarod, body temperature and traction test ([1]; 2.5-15 mg/kg): showed these side effects"
"CSc1nc(NC2CCCC2)c([N+](=O)[O-])c(NC2CCCC2)n1 [GS39783, N,N_-dicyclopentyl-2-methylsulfanyl-5-nitro-pyrimidine-4,6-diamine]",,,,"tolerance after chronic treatment ([2]; 21 days, 10 mg/kg, P.O., once daily): No tolerance; anxiolytic-like effects ([2]; elevated plus maze (rat), elevated zero maze (mice and rats), stress-induced hyperthermia (mice)): exhibited anxiolytic-like effects; decreasing cocaine self-administration [3]: effective; effect on spontaneous locomotor activity, rotarod, body temperature and traction test ([1]; 0.1-200 mg/kg): had no effect"
"CC(=O)c1c(C)nc2ccc(OC(F)(F)F)cc2c1-c1cccc(Cl)c1 [Example 15, 1-[4-(3-Chloro-phenyl)-2-methyl-6-trifluoromethoxy-quinolin-3-yl]-ethanone]",−1.15,67,1.6,
"Cc1nc2ccc(N3CCCCC3)cc2c(-c2ccc(F)cc2)c1C(=O)C(F)(F)F [Example 33, 2,2,2-Trifluoro-1-[4-(4-fluoro-phenyl)-2-methyl-6-piperidin-1-yl-quinolin-3-yl]-ethanone]",−0.90,62,0.33,
"CC(C)(CO)Cc1cc(C(C)(C)C)c(O)c(C(C)(C)C)c1 [CGP7930, 2,6-di-tert-butyl-4-(3-hydroxy-2,2-dimethyl-propyl)-phenol]",,,,decreasing cocaine self-administration [3]: effective

# More lines, main results first:
GABA shift Log [EC50(GABA + 10 μM cp)/EC50(GABA alone)] (human GABABR1aR2a),Emax (human GABABR1aR2a) [%],EC50 (human GABABR1aR2a) [µM],Compound,other results
−1.00,65,0.8,"Cc1nc2ccc(OC(F)(F)F)cc2c(-c2ccccc2)c1C(=O)C(F)(F)F [Example 11, 2,2,2-Trifluoro-1-(2-methyl-4-phenyl-6-trifluoromethoxy-quinolin-3-yl)-ethanone]",
−1.20,124,0.8,"Cc1nc2ccc(Br)cc2c(-c2ccccc2)c1C(=O)C(F)(F)F [Example 3, 1-(6-Bromo-2-methyl-4-phenyl-quinolin-3-yl)-2,2,2-trifluoro-ethanone]",
−0.70,63,0.9,"Cc1nc2cc3c(cc2c(-c2ccccc2)c1C(=O)C(F)(F)F)OC(F)(F)O3 [Example 19, 1-(2,2-Difluoro-6-methyl-8-phenyl-[1,3]dioxolo[4,5-g]quinolin-7-yl)-2,2,2-trifluoro-ethanone]",
